Activity calls are given as the source filed them. The rule behind the calls is not given here. Where a SMILES comes first, the peptide text is derived from it. Bridges are numbered along the chain shown (N, C = ends). [ ]: non-standard residue; d: D form. Pen = CC(C)(S)[C@H](N)C(=O)O; hSer = N[C@@H](CCO)C(=O)O; Orn = NCCC[C@H](N)C(=O)O
Key:
[1] = biological target: T1, Urotensin-2 receptor (Homo sapiens) (UniProt Q9UKP6); assay: Modulation of human UTR stably expressed in HEK293 cells assessed as increase in Ca2+ level at 0.1 to 100 nM by Fura 2-AM dye based calcium mobilization assay; assay type: functional, cell-based; conditions: dose 0.1-100 nM
T1 sequence (whole entry): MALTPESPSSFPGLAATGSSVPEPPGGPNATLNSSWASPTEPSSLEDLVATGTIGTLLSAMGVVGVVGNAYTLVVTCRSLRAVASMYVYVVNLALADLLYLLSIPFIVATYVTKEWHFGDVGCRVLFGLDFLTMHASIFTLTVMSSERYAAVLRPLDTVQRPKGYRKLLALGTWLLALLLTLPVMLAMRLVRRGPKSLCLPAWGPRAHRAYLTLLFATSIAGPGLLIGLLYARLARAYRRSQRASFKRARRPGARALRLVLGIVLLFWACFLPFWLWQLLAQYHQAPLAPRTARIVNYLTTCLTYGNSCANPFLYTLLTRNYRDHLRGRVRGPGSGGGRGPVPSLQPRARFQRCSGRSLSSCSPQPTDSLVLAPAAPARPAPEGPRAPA

Aortic ring [2] = assay: Induction of contraction in Albino Wistar rat aortic ring at 1 to 30 nM; assay type: functional, tissue-based; conditions: Aorta, dose 1-30 nM
[3] = biological target: T1, Urotensin-2 receptor (Homo sapiens); assay: Modulation of human UTR stably expressed in HEK293 cells assessed as increase in Ca2+ level at 0.1 nM by Fura 2-AM dye based calcium mobilization assay; assay type: functional, cell-based; conditions: filed as modulator
Aortic ring [4] = assay: Induction of contraction in Albino Wistar rat aortic ring at 1 to 30 nM relative to control; assay type: functional, Aorta; conditions: dose 1-30 nM
Aortic ring [5] = assay: Induction of contraction in Albino Wistar rat aortic ring assessed as Emax of hU-II at 0.1 uM incubated for 30 mins in presence of hU-II (reference value: 224.8 +/- 11.71 dyne/mg); assay type: functional, Aorta; conditions: 0.5 h
Aortic ring [6] = assay: Induction of contraction in Albino Wistar rat aortic ring assessed as Emax of hU-II at 10 uM incubated for 30 mins in presence of hU-II (reference value: 238.4 +/- 9.53 dyne/mg); assay type: functional, Aorta; conditions: 0.5 h
Aortic ring [7] = assay: Induction of contraction in Albino Wistar rat aortic ring assessed as Emax of hU-II at 1 uM incubated for 30 mins in presence of hU-II (reference value: 214.5 +/- 10.51 dyne/mg); assay type: functional, Aorta; conditions: 0.5 h
Aortic ring [8] = assay: Induction of contraction in Albino Wistar rat aortic ring assessed as Emax of U-II(4-11) at 1 uM incubated for 30 mins in presence of U-II(4-11) (reference value: 159.8 +/- 7.39 dyne/mg); assay type: functional, Aorta; conditions: 0.5 h
Aortic ring [9] = assay: Induction of contraction in Albino Wistar rat aortic ring assessed as Emax of U-II(4-11) at 10 uM incubated for 30 mins in presence of U-II(4-11) (reference value: 159.8 +/- 7.3 dyne/mg); assay type: functional, Aorta; conditions: 0.5 h
Aortic ring [10] = assay: Induction of contraction in Albino Wistar rat aortic ring assessed as Emax of U-II(4-11) at 0.1 uM incubated for 30 mins in presence of U-II(4-11) (reference value: 242.6 +/- 20.63 dyne/mg); assay type: functional, Aorta; conditions: 0.5 h
Aortic ring [11] = assay: Induction of contraction in Albino Wistar rat aortic ring assessed as Emax of [Ala1]U-II at 1 uM incubated for 30 mins in presence of [Ala1]U-II (reference value: 308.1 +/- 21.4 dyne/mg); assay type: functional, Aorta; conditions: 0.5 h
Aortic ring [12] = assay: Induction of contraction in Albino Wistar rat aortic ring assessed as Emax of [Ala1]U-II at 0.1 uM incubated for 30 mins in presence of [Ala1]U-II (reference value: 220.3 +/- 17.48 dyne/mg); assay type: functional, Aorta; conditions: 0.5 h
Aortic ring [13] = assay: Induction of contraction in Albino Wistar rat aortic ring assessed as Emax of [Ala1]U-II at 10 uM incubated for 30 mins in presence of [Ala1]U-II (reference value: 153.3 +/- 10.75 dyne/mg); assay type: functional, Aorta; conditions: 0.5 h
[14] = biological target: T1, Urotensin-2 receptor (Homo sapiens); assay: Modulation of human UTR stably expressed in HEK293 cells assessed as increase in Ca2+ level at 0.01 to 1 nM by Fura 2-AM dye based calcium mobilization assay; assay type: functional, cell-based; conditions: filed as modulator, dose 0.01-1 nM

With `CC(C)[C@H](NC(=O)[C@@H]1CSSC(C)(C)[C@H](NC(=O)[C@@H](N)CC(=O)O)C(=O)N[C@@H](Cc2ccccc2)C(=O)N[C@H](Cc2c[nH]c3ccccc23)C(=O)N[C@@H](CCCN)C(=O)N[C@@H](Cc2ccc(O)cc2)C(=O)N1)C(=O)O` (H-D[Pen]F[dW][Orn]YCV-OH; disulfide 2-7) the Activity [1] was “inactive” and the Activity (Aortic ring [2]) was “inactive”.

`CC(C)[C@H](NC(=O)[C@@H]1CSSC[C@H](NC(=O)[C@H](CC(=O)O)NC(=O)[C@@H]2CCCN2C(=O)[C@@H](NC(=O)[C@@H](N)CCO)[C@@H](C)O)C(=O)N[C@@H](Cc2ccccc2)C(=O)N[C@@H](Cc2c[nH]c3ccccc23)C(=O)N[C@@H](CCCCN)C(=O)N[C@@H](Cc2ccc(O)cc2)C(=O)N1)C(=O)O` (H-[hSer]TPDCFWKYCV-OH; disulfide 5-10) was tested, and the Activity [1] was “inactive”, the Activity [3] was “Active” and the Emax (Aortic ring [4]) was 144.2 dyn/mg.

With `CC(C)[C@H](NC(=O)[C@@H]1CSSC[C@H](NC(=O)[C@H](CC(=O)O)NC(=O)[C@@H]2CCCN2C(=O)[C@@H](NC(=O)[C@@H](N)CCC(=O)O)[C@@H](C)O)C(=O)N[C@@H](Cc2ccccc2)C(=O)N[C@@H](Cc2c[nH]c3ccccc23)C(=O)N[C@@H](CCCCN)C(=O)N[C@@H](Cc2ccc(O)cc2)C(=O)N1)C(=O)O` [UROTENSIN-II] the Emax (Aortic ring [4]) was 237.2 dyn/mg.

`CC(C)[C@H](NC(=O)[C@@H]1CSSC(C)(C)[C@H](NC(=O)[C@H](CC(=O)O)NC(=O)[C@@H]2CCCN2C(=O)[C@@H](NC(=O)[C@H](C)N)[C@@H](C)O)C(=O)N[C@@H](Cc2ccccc2)C(=O)N[C@H](Cc2c[nH]c3ccccc23)C(=O)N[C@@H](CCCN)C(=O)N[C@@H](Cc2ccc(O)cc2)C(=O)N1)C(=O)O` was tested, and the Activity ([1]; filed as modulator) was “Active”, the Activity (Aortic ring [2]) was “inactive” and the Emax (Aortic ring [5]) was 264.3 dyn/mg. It also gave an Emax (Aortic ring [6]) of 320.8 dyn/mg, an Emax (Aortic ring [7]) of 315.6 dyn/mg and an Emax (Aortic ring [8]) of 248.2 dyn/mg. For the same compound, the Emax (Aortic ring [9]) was 541.8 dyn/mg, the Emax (Aortic ring [10]) was 263 dyn/mg and the Emax (Aortic ring [11]) was 121.9 dyn/mg. The Emax (Aortic ring [12]) was 373.5 dyn/mg and the Emax (Aortic ring [13]) was 285 dyn/mg.

In the case of `CC(C)[C@H](NC(=O)[C@@H]1CSSC[C@H](NC(=O)[C@H](CC(=O)O)NC(=O)[C@@H]2CCCN2C(=O)[C@@H](NC(=O)[C@H](C)N)[C@@H](C)O)C(=O)N[C@@H](Cc2ccccc2)C(=O)N[C@@H](Cc2c[nH]c3ccccc23)C(=O)N[C@@H](CCCCN)C(=O)N[C@@H](Cc2ccc(O)cc2)C(=O)N1)C(=O)O` (H-ATPDCFWKYCV-OH; disulfide 5-10), the Activity [14] is reported as “Active”.

— ChEMBL document CHEMBL5550214, “Expanding Structure-Activity Relationships of Human Urotensin II Peptide Analogues: A Proposed Key Role of the N-Terminal Region for Novel Urotensin II Receptor Modulators” (J Med Chem, 2024)
